ChEMBL document CHEMBL4033731, “Structural development of 1,2,3,4-tetrahydroisoquinoline-type positive allosteric modulators of prostacyclin receptor (IPPAMs) to improve metabolic stability, and investigation of metabolic fate” (Bioorg Med Chem Lett, 2017)
The source made the active and inactive calls. The calls are words filed in the database; no cut-off is given here.

Assays:
[1] = Half life in human hepatic microsomes at 0.1 uM by HPLC-MS/MS method; assay type: ADME, Microsome; settings: liver microsomes
[2] = molecular target: Prostacyclin receptor (Homo sapiens) (UniProt P43119); experiment: Positive allosteric modulator activity at human prostacyclin receptor expressed in CHO-K1 cells assessed as compound concentration needed to shift agonist concentration response curve leftward by 2-fold by measuring CAMP accumulation; assay type: cell-based
Chain of Prostacyclin receptor (Homo sapiens) (P43119 whole entry): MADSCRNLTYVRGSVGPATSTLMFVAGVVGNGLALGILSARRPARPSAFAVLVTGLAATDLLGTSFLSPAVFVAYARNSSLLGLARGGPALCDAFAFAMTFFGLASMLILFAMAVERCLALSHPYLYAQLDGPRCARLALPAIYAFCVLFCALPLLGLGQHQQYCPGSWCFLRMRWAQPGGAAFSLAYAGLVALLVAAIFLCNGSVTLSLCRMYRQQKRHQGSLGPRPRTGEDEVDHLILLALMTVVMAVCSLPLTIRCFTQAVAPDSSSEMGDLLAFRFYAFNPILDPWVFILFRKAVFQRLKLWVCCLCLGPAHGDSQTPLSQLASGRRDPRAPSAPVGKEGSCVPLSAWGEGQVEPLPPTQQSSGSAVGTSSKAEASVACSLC

[3] = Drug metabolism in human hepatic microsomes assessed as peak area for parent compound at 10 uM incubated for 90 mins at 37 degC by HPLC-MS/MS method relative to control; assay type: ADME, Microsome; settings: liver microsomes, read-out: Stability
[4] = Drug metabolism in human hepatic microsomes assessed as 2-((1-tert-butyl-1H-tetrazol-5-yl)(3,4-dihydroisoquinolin-2(1H)-yl)methyl)-4-fluorophenol formation at 10 uM incubated for 90 mins at 37 degC by HPLC-MS/MS method relative to control; assay type: ADME, Liver, Microsome; settings: 1.5 h
[5] = Drug metabolism in human hepatic microsomes assessed as 2-((3,4-dihydroisoquinolin-2(1H)-yl)(1-(1-hydroxy-2-methylpropan-2-yl)-1H-tetrazol-5-yl)methyl)-6-fluorophenol formation at 10 uM incubated for 90 mins at 37 degC by HPLC-MS/MS method relative to control; assay type: ADME, Liver, Microsome; settings: 1.5 h
[6] = Drug level in human hepatic microsomes treated with 10 uM of 2-((1-tert-butyl-1H-tetrazol-5-yl)(3,4-dihydroisoquinolin-2(1H)-yl)methyl)-6-fluorophenol assessed as drug formation at 10 uM incubated for 90 mins at 37 degC by HPLC-MS/MS method relative to control; assay type: ADME, Liver, Microsome; settings: 1.5 h
[7] = molecular target: Prostacyclin receptor (Homo sapiens) (UniProt P43119); experiment: Positive allosteric modulator activity at human prostacyclin receptor expressed in CHO-K1 cells assessed as compound concentration needed to shift agonist concentration response curve leftward by 2-fold by measuring CAMP accumulation at 100 uM; assay type: cell-based

half-life at 0.1 µM [1] [min] | Activity [2] | Compound | also measured
3 | 4.7 µM | CC(C)(C)n1nnnc1C(c1ccccc1F)N1CCc2ccccc2C1 (centres undefined) | 
21 | 8.2 µM | CC(C)(C)n1nnnc1C(c1cccc(F)c1O)N1CCc2ccccc2C1 (centres undefined) | remaining at 1.5 h, 10 µM [3]: 1.04%; Drug metabolism [4]: Metabolite_Detected; Drug metabolism [5]: Metabolite_Detected
6 | 15.2 µM | COc1ccccc1C(c1nnnn1C(C)(C)C)N1CCc2ccc(F)cc2C1 (centres undefined) | 
6 | 6.9 µM | CC(C)(C)n1nnnc1C(c1ccccc1)N1CCc2ccccc2C1 (centres undefined) | 
8 | 4.3 µM | COc1ccccc1C(c1nnnn1C(C)(C)C)N1CCc2ccccc2C1 (centres undefined) | 
5 | 12 µM | CC(C)(C)n1nnnc1C(c1cc(F)ccc1O)N1CCc2ccccc2C1 (centres undefined) | 
 |  | CC(C)(C)n1nnnc1C(c1cccc(O)c1O)N1CCc2ccccc2C1 (centres undefined) | Drug metabolism [6]: Metabolite_Detected
7 | 1.4 µM | CC(C)(C)n1nnnc1C(c1ccccc1O)N1CCc2ccccc2C1 (centres undefined) | 
6 | inactive | CC(C)(C)NC(=O)C(c1ccccc1)N1CCc2ccccc2C1 (centres undefined) | Activity [7]: inactive
3 | 6.2 µM | COc1ccccc1C(c1nnnn1C(C)(C)C)N1CCC2CCCCC2C1 (centres undefined) | 
 |  | CC(C)(CO)n1nnnc1C(c1cccc(F)c1O)N1CCc2ccccc2C1 (centres undefined) | Drug metabolism [6]: Metabolite_Detected
